Reference: patent US4820701A, “Penam derivatives” (Beecham Group p.l.c., priority 1987, dated 1989)
In brackets after ≈: the same amount, converted by molar mass. Structures can show the parent of a compound that is named as a salt.

Key:
Experiment in all cases: MIC by serial dilution in agar
Assay type in all cases: cell-based
E. coli JT 425 = conditions: Escherichia coli, JT425; Iso-sensitest Agar, 10^4 colony forming units, overnight at 37° C
Description: (§1) Minimum Inhibitory concentration (MIC) values of compounds of the invention against E. coli JT425 and DC RTEM, K. Pneumoniae T767 and P. aeruginosa 10662 and K79961. were determined by serial dilution in Iso-sensitest Agar (from Oxoid Ltd., Basingstoke, England). The plates were inoculated with 10^4 colony forming units and incubated overnight at 37° C. The MIC values recorded in Table 1 were the lowest concentration of antibiotic to inhibit growth. Comparative data for Piperacillin which is the compound 6β-[D-2-[(4-ethyl-2,3-dioxopiperazin-1-yl)carbonylamino]-2-phenylacetamido]-penicillanic acid, sodium salt and for the compound 6α-formamido-6β-[D-2-[(4-ethyl-2,3-dioxopiperazin-1-yl)carbonylamino]-2-phenylacetamido]-penicillanic acid, sodium salt (Compound A) disclosed in U.K. GB Pat. No.-2107307B, are also given.

P. aeruginosa 10662 = conditions: Pseudomonas aeruginosa, Iso-sensitest Agar, 10^4 colony forming units, overnight at 37° C
Description: as §1

E. coli DC RTEM = conditions: Escherichia coli
Description: as §1

P. aeruginosa K79961 = conditions: Pseudomonas aeruginosa, Iso-sensitest Agar, 10^4 colony forming units, overnight at 37° C
Description: as §1

K. pneumoniae T767 = conditions: Klebsiella pneumoniae, Iso-sensitest Agar, 10^4 colony forming units, overnight at 37° C
Description: as §1

Structure (SMILES)	MIC (E. coli JT 425) [µg/mL]	MIC (P. aeruginosa 10662) [µg/mL]	MIC (E. coli DC RTEM) [µg/mL]	MIC (P. aeruginosa K79961) [µg/mL]	MIC (K. pneumoniae T767) [µg/mL]
CCN1CCN(C(=O)N[C@@H](C(=O)N[C@]2(NC=O)C(=O)N3[C@@H](C(=O)O)C(C)(C)S[C@@H]32)c2ccccc2)C(=O)C1=O [Compound A, 6α-formamido-6β-[D-2-[(4-ethyl-2,3-dioxopiperazin-1-yl)carbonylamino]-2-phenylacetamido]-penicillanic acid, sodium salt, reference compound]	8	16	4	2	4
CCN1CCN(C(=O)N[C@@H](C(=O)N[C@]2(NC=O)C(=O)N3[C@@H](C(=O)O)[C@](C)(COC(=O)c4ccc(OC(C)=O)c(OC(C)=O)c4)S[C@@H]32)c2ccccc2)C(=O)C1=O [Example 1]	0.5 (≈ 0.628 µM)	0.25 (≈ 0.314 µM)	0.12 (≈ 0.151 µM)	0.06 (≈ 0.0753 µM)	0.12 (≈ 0.151 µM)
CCN1CCN(C(=O)N[C@@H](C(=O)N[C@]2(NC=O)C(=O)N3[C@@H](C(=O)O)[C@](C)(COC(=O)c4ccc(O)c(O)c4)S[C@@H]32)c2ccccc2)C(=O)C1=O [Example 2, Sodium 6β-[R,2-(4-ethyl-2,3-dioxopiperazin-1-yl)carbonylamino-2-phenylacetamido]-6α-formamido-2β-(3,4-dihydroxybenzoyloxy)methyl-2α-methylpenam-3-carboxylate]	0.5	0.12	< 0.03	< 0.03	0.12
CCN1CCN(C(=O)N[C@@H](C(=O)N[C@@H]2C(=O)N3[C@@H]2S[C@@](C)(COC(=O)c2ccc(OC(C)=O)c(OC(C)=O)c2)[C@@H]3C(=O)O)c2ccccc2)C(=O)C1=O [Example 3, Sodium 2β-(3,4-diacetoxybenzoyloxy)methyl-6β-[R,2-(4-ethyl-2,3-dioxopiperazin-1-yl)carbonylamino-2-phenylacetamido]-2α-methylpenam-3-carboxylate]	1	< 0.03	4	< 0.03	0.25
CCN1CCN(C(=O)N[C@@H](C(=O)N[C@@H]2C(=O)N3[C@@H]2SC(C)(C)[C@@H]3C(=O)O)c2ccccc2)C(=O)C1=O [Piperacillin, 6β-[D-2-[(4-ethyl-2,3-dioxopiperazin-1-yl)carbonylamino]-2-phenylacetamido]-penicillanic acid, sodium salt, reference compound]	16	2	> 128	> 0.06	2
